Read-outs that look alike come from different tables or passages of the source. Each block holds one compound with its values, some of them ahead of it. Numbered stars: 1 amine (or outer) side, 2 acyl side, 3 side chain; on linkers, the order of the positions; unused ones are H or OH. Bridge positions count the residues as written; N and C are the ends. Square brackets hold non-standard residues; d marks the D form. Peptide text beside a SMILES is read from it. * marks the point of attachment. ξ: configuration not given here. X11 = O=C(CCCC[C@@H]1SC[C@@H]2NC(=O)N[C@@H]21)NCCCOCCOCCOCCCNC(=O)CCC(=O)NCCCOCCOCCOCCCN*; DOTA = O=C(O)CN1CCN(CC(=O)O)CCN(CC(=O)*)CCN(CC(=O)O)CC1; X13 = C/N=C(/NC)N(C)CCC[C@H](N[*:1])C(=O)[*:2]; Phe(4-Cl) = N[C@@H](Cc1ccc(Cl)cc1)C(=O)O; Phe(3-F) = N[C@@H](Cc1cccc(F)c1)C(=O)O; Ethylenediamine = C(CN[*:2])N[*:1]; X4 = O=C(CN1CCC(N[*:1])CC1)[*:2]; X1 = O=C(CC1CCN([*:1])CC1)[*:2]; Lys(Me) = CNCCCC[C@H](N)C(=O)O; Suc = O=C(CCC(=O)[*:2])[*:1]; Tle = CC(C)(C)[C@H](N)C(=O)O; 4Amb = NCc1ccc(C(=O)O)cc1; ξD = NC(CC(=O)O)C(=O)O; Aib = CC(C)(N)C(=O)O; βAla = NCCC(=O)O
Assays:
[1] = molecular target: T1, PSMA-expressing C4-2 cells (Homo sapiens, UniProt Q04609); test: FACS binding assay (competition with 50 nM PSM-0183); details: read-out: pIC50 [C4-2] CAT (converted)
T1 construct: PSMA-expressing C4-2 cells (ATCC, Cat. No. CRL-3314) were cultured in RPMI-1640; host or cells: C4-2 cells
How it was run: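 C4-2 cells were incubated 1 h at 4 °C with 50 nM AF488-labelled peptide PSM-0183 plus increasing test compound concentrations, then washed twice in ice-cold buffer. Median fluorescence in the AF488 channel was read by flow cytometry. IC50/pIC50 was derived by 4PL fitting of MFI versus concentration.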

[2] = molecular target: T2, Fc-fusion protein of human PSMA (hPSMA-Fc) (Homo sapiens, UniProt Q04609); test: Surface plasmon resonance assay (Biacore T200, single cycle kinetic); type: binding; details: read-out: pKD CAT (converted)
T2 construct: purchased Acro Biosystems PSA-H5264
How it was run: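 hPSMA-Fc was captured (~1000 RU) on an Fc-binding-peptide CM5 chip, and compounds were run in single cycle kinetic mode at 25° C in HBST with 0.1% DMSO. Double-blank-corrected sensorgrams were fitted to a 1:1 Langmuir model to give KD, reported as pKD.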

[3] = pIC50 category of FACS binding, C4-2 cells
[4] = pKD category for PSMA SPR activity assay, hPSMA-Fc, 25° C.
[5] = FACS binding, C4-2 cells, category
[6] = FACS binding, C4-2 cells, competition with 50 nM PSM-0183, category
[7] = SPR, hPSMA-Fc, single cycle kinetic, 25° C., category

T2 sequence (Q04609 44-750 limits assumed): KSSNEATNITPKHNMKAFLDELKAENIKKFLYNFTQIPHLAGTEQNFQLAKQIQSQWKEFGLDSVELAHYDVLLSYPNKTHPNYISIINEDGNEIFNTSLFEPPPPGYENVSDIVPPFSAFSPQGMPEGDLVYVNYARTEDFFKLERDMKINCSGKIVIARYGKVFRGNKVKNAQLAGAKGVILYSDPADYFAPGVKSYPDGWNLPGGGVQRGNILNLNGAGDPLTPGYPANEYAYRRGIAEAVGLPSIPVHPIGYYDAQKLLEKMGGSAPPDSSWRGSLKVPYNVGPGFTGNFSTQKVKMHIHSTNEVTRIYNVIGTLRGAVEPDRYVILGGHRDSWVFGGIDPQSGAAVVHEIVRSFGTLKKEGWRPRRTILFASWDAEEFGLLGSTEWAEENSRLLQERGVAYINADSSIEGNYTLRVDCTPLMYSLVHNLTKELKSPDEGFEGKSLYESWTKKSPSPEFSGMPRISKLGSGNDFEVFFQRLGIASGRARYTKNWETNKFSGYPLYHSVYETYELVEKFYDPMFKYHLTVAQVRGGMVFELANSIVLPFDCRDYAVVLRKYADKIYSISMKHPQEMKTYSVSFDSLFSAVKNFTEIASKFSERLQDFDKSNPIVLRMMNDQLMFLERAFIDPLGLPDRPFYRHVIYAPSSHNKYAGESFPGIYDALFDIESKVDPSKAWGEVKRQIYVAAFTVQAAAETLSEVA
T1 sequence (Q04609 whole entry): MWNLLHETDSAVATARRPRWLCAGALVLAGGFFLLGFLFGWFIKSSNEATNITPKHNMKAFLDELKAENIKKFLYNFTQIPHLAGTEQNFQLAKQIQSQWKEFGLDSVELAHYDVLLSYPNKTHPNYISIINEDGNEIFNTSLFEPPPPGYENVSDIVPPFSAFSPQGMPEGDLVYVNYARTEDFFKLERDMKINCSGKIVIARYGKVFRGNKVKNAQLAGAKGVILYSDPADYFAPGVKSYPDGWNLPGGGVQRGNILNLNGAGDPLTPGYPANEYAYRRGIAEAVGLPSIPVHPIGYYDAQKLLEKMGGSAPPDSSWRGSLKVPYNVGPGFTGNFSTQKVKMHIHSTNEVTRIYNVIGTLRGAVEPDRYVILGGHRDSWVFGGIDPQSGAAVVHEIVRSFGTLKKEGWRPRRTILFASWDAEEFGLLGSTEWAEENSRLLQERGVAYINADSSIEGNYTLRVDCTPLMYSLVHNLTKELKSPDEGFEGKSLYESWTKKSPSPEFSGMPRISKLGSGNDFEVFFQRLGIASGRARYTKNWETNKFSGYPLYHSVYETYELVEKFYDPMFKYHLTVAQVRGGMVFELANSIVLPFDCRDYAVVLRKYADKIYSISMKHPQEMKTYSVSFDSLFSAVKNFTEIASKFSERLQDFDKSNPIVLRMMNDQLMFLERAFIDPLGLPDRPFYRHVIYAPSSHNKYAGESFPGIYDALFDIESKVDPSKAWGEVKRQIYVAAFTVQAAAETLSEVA

SMILES: CC(=O)N[C@H](C(=O)NC(C)(C)C(=O)N[C@@H](Cc1ccc(Cl)cc1)C(=O)N[C@H]1CSSC[C@@H](C(=O)N[C@H](C(=O)N[C@H](C(=O)N2CCC(CC(=O)N[C@H](CCCCNC(=O)CN3CCN(CC(=O)O)CCN(CC(=O)O)CCN(CC(=O)O)CC3)C(N)=O)CC2)[C@@H](C)O)C(C)(C)C)NC(=O)[C@H](CC(N)=O)NC(=O)C(C)(C)NC(=O)[C@H](CCCNC(=N)N)NC(=O)[C@H](CCCCN)NC1=O)[C@@H](C)O [PSM-0482, Ac-Thr-Aib-Pcf-[Cys-Lys-Arg-Aib-Asn-Cys]-Tle-Thr-Cmp-lys(DOTA)-NH2] (Ac-T[Aib][Phe(4-Cl)]CKR[Aib]NC[Tle]T[X1][dK](DOTA)-NH2; disulfide 4-9)
- IC50 [1, 3]: < 200 nM
- Kd [2, 4]: < 12.6 nM

SMILES: CC(=O)N[C@H](C(=O)NC(C)(C)C(=O)N[C@@H](Cc1ccccc1)C(=O)N[C@H]1CSSC[C@@H](C(=O)N[C@H](C(=O)N[C@H](C(N)=O)[C@@H](C)O)C(C)(C)C)NC(=O)[C@H](CC(N)=O)NC(=O)C(C)(C)NC(=O)[C@H](CCCNC(=N)N)NC(=O)[C@H](CCCCN)NC1=O)[C@@H](C)O [PSM-0178, Ac-Thr-Aib-Phe-[Cys-Lys-Arg-Aib-Asn-Cys]-Tle-Thr-NH2] (Ac-T[Aib]FCKR[Aib]NC[Tle]T-NH2; disulfide 4-9)
- IC50 [1, 6]: < 200 nM
- Kd [2, 7]: < 12.6 nM

SMILES: CNCCCC[C@@H]1NC(=O)[C@@H](NC(=O)[C@H](Cc2ccc(Cl)cc2)NC(=O)C(C)(C)NC(C)=O)CSSC[C@@H](C(=O)N[C@H](C(=O)NCCNC(=O)CN2CCN(CC(=O)O)CCN(CC(=O)O)CCN(CC(=O)O)CC2)C(C)(C)C)NC(=O)[C@H](CC(N)=O)NC(=O)C(C)(C)NC(=O)[C@H](CCCNC(=N)N)NC1=O [PSM-0472, Ac-Aib-Pcf-[Cys-Lys(Me)-Arg-Aib-Asn-Cys]-Tle-en-DOTA] (Ac-[Aib][Phe(4-Cl)]C[Lys(Me)]R[Aib]NC[Tle]-{Ethylenediamine-DOTA}; disulfide 3-8)
- IC50 [1, 3]: < 200 nM
- Kd [2, 4]: < 12.6 nM

SMILES: C/N=C(/NC)N(C)CCC[C@@H]1NC(=O)[C@H](CCCCNC)NC(=O)[C@@H](NC(=O)[C@H](Cc2ccc(Cl)cc2)NC(=O)C(C)(C)NC(=O)[C@@H](NC(=O)CC2CCN(C(=O)CN3CCN(CC(=O)O)CCN(CC(=O)O)CCN(CC(=O)O)CC3)CC2)[C@@H](C)O)CSSC[C@@H](C(=O)N[C@H](C(=O)N[C@H](C(N)=O)[C@@H](C)O)C(C)(C)C)NC(=O)[C@H](CC(N)=O)NC(=O)C(C)(C)NC1=O [PSM-0355, DOTA-Cmp-Thr-Aib-Pcf-[Cys-Lys(Me)-RMe3-Aib-Asn-Cys]-Tle-Thr-NH2] ({DOTA}-[X1]T[Aib][Phe(4-Cl)]C[Lys(Me)][X13][Aib]NC[Tle]T-NH2; disulfide 5-10)
- IC50 ([1]; FACS binding, PSMA-expressing C4-2 cells, pIC50 category): 200 to 1260 nM
- Kd ([2]; PSMA SPR assay, hPSMA-Fc, 25° C., pKD category): < 12.6 nM

SMILES: CC(=O)N[C@H](C(=O)NC(C)(C)C(=O)N[C@@H](Cc1ccccc1)C(=O)N[C@H]1CSSC[C@@H](C(=O)N[C@H](C(=O)N[C@H](C(=O)NC2CCN(CC(=O)N[C@H](CCCCNC(=O)CN3CCN(CC(=O)O)CCN(CC(=O)O)CCN(CC(=O)O)CC3)C(N)=O)CC2)[C@@H](C)O)C(C)(C)C)NC(=O)[C@H](CC(N)=O)NC(=O)C(C)(C)NC(=O)[C@H](CCCNC(=N)N)NC(=O)[C@H](CCCCN)NC1=O)[C@@H](C)O [PSM-0191, Ac-Thr-Aib-Phe-[Cys-Lys-Arg-Aib-Asn-Cys]-Tle-Thr-APAc-lys(DOTA)-NH2] (Ac-T[Aib]FCKR[Aib]NC[Tle]T[X4][dK](DOTA)-NH2; disulfide 4-9)
- IC50 [1, 6]: < 200 nM
- Kd [2, 7]: < 12.6 nM

Results, then the compound that gave them:

- IC50 [1, 3]: < 200 nM
- Kd [2, 4]: < 12.6 nM
SMILES: CC(=O)N[C@H](C(=O)NC(C)(C)C(=O)N[C@@H](Cc1cccc(F)c1)C(=O)N[C@H]1CSSC[C@@H](C(=O)N[C@H](C(=O)N[C@H](C(N)=O)[C@@H](C)O)C(C)(C)C)NC(=O)[C@H](CC(N)=O)NC(=O)C(C)(C)NC(=O)[C@H](CCCNC(=N)N)NC(=O)[C@H](CCCCN)NC1=O)[C@@H](C)O [PSM-0551, Ac-Thr-Aib-Mff-[Cys-Lys-Arg-Aib-Asn-Cys]-Tle-Thr-NH2] (Ac-T[Aib][Phe(3-F)]CKR[Aib]NC[Tle]T-NH2; disulfide 4-9)

- IC50 [1, 3]: < 200 nM
- Kd [2, 4]: < 12.6 nM
SMILES: CSCC[C@H](N)C(=O)N[C@H](C(=O)N[C@@H](C)C(=O)N[C@@H](Cc1ccccc1)C(=O)N[C@H]1CSSC[C@@H](C(=O)N[C@@H](CC(C)C)C(=O)N[C@H](C(=O)NC(CC(=O)O)C(=O)NCC(=O)N[C@@H](CO)C(N)=O)[C@@H](C)O)NC(=O)[C@H](CC(N)=O)NC(=O)[C@H](C)NC(=O)[C@H](CCCNC(=N)N)NC(=O)[C@H](CCCCN)NC1=O)[C@@H](C)O (stereo partly drawn) [PSM-0498, H-Met-Thr-Ala-Phe-[Cys-Lys-Arg-Ala-Asn-Cys]-Lou-Thr-Asp-Gly-Ser-NH2] (H-MTAFCKRANCLT[ξD]GS-NH2; disulfide 5-10)

- IC50 [1, 5]: < 200 nM
- Kd ([2]; PSMA SPR assay, category): 12.6 to 126 nM
SMILES: CC(C)(NC(=O)c1ccc(CNC(=O)CN2CCN(CC(=O)O)CCN(CC(=O)O)CCN(CC(=O)O)CC2)cc1)C(=O)N[C@@H](Cc1ccccc1)C(=O)N[C@H]1CSSC[C@@H](C(=O)N[C@H](C(=O)NCCC(N)=O)C(C)(C)C)NC(=O)[C@H](CC(N)=O)NC(=O)C(C)(C)NC(=O)[C@H](CCCNC(=N)N)NC(=O)[C@H](CCCCN)NC1=O [PSM-0574, DOTA-Pamb-Aib-Phe-[Cys-Lys-Arg-Aib-Asn-Cys]-Tle-Bal-NH2] ({DOTA-4Amb}-[Aib]FCKR[Aib]NC[Tle][βAla]-NH2; disulfide 3-8)

- IC50 [1, 5]: < 200 nM
- Kd ([2]; PSMA SPR assay, category): < 12.6 nM
SMILES: C[C@@H](O)[C@H](NC(=O)[C@@H](NC(=O)[C@@H]1CSSC[C@H](NC(=O)[C@H](Cc2ccc(Cl)cc2)NC(=O)C(C)(C)NC(=O)[C@@H](NC(=O)CCC(=O)NCCCOCCOCCOCCCNC(=O)CCC(=O)NCCCOCCOCCOCCCNC(=O)CCCC[C@@H]2SC[C@@H]3NC(=O)N[C@@H]32)[C@@H](C)O)C(=O)N[C@@H](CCCCN)C(=O)N[C@@H](CCCNC(=N)N)C(=O)NC(C)(C)C(=O)N[C@@H](CC(N)=O)C(=O)N1)C(C)(C)C)C(N)=O [PSM-0575, Bio-Ttds-Ttds-Thr-Aib-Pcf-[Cys-Lys-Arg-Aib-Asn-Cys]-Tle-Thr-NH2] ({X11-Suc}-T[Aib][Phe(4-Cl)]CKR[Aib]NC[Tle]T-NH2; disulfide 4-9)
